We go through five compounds from US6310213A, “Ethanesulfonyl-piperidine derivatives” (Hoffmann-La Roche Inc., priority 1999, dated 2001).

Assay [1] addresses T1, NMDA NR1 + NR2B (Homo sapiens, UniProt Q05586+Q13224).
T1 construct: expressed in transfected cells; host or cells: Xenopus oocytes
The experiment in a line: Block of recombinant NMDA receptor subtype NR1 + NR2B expressed in Xenopus oocytes. The assay is classed as cell-based. From the text:
(§1) ^c Indicates the ability to block selectively recombinant NMDA receptor
(§2) subtypes expressed in Xenopus oocytes.

The target of assay [2] is T2, NMDA NR2B subunit containing receptors (Rattus norvegicus, UniProt P35439+Q00960).
T2 construct: Membranes were prepared by homogenization of the whole brain minus cerebellum and medulla oblongata; from tissue; host or cells: rat whole brain minus cerebellum and medulla oblongata, membranes
T2 sequence (Q00960 27-1482, other chains not shown): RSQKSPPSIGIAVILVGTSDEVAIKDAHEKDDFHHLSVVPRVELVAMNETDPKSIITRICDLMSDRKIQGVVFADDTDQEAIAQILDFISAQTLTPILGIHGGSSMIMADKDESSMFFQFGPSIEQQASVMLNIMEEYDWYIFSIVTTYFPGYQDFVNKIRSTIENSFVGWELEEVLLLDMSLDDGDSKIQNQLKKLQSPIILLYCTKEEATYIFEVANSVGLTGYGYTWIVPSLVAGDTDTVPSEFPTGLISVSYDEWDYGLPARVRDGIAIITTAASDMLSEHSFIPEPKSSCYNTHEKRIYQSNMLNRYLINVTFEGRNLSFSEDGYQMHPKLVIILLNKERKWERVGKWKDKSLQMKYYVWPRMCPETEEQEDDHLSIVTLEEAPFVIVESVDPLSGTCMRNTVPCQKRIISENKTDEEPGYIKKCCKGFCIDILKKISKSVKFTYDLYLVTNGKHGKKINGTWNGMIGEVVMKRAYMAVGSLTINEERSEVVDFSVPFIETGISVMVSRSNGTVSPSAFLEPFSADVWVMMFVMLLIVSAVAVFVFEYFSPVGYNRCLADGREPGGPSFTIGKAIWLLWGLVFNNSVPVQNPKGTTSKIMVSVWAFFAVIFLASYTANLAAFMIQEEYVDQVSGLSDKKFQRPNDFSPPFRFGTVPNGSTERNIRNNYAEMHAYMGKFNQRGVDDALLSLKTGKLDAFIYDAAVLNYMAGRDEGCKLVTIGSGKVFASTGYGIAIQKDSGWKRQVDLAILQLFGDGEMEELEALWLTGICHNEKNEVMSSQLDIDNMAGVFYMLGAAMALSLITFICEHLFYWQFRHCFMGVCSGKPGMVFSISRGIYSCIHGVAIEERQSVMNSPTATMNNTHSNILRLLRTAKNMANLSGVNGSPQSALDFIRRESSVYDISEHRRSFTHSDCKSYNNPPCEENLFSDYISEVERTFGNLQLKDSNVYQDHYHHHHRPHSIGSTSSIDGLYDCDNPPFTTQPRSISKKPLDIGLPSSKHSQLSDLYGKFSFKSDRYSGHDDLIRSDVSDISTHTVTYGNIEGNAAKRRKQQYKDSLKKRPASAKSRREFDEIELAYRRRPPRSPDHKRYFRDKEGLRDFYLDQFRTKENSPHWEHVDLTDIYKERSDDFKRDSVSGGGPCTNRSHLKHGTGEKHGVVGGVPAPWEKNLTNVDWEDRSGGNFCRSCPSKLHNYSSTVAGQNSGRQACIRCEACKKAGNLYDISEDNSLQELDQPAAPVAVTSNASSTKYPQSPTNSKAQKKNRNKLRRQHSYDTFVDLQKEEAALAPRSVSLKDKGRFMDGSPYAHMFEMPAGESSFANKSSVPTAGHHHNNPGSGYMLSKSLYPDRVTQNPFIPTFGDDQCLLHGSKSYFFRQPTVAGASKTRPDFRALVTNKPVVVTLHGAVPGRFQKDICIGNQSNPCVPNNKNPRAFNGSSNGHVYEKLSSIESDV
Description: 3H [R-(R*,S*)]-α-(4-Hydroxy-phenyl)-β-methyl-4-(phenyl-methyl)-1-piperidine propanol binding. Details: species or system rat (Male Fullinsdorf albino rats). The settings on record: rat brain membranes, 5 nM radioligand, 2 hours at 4° C., pH 7.4; read-out: Inhibition of 3H [R-(R*, S*)]-α-(4-Hydroxy-phenyl)-β-methyl-4-(phenyl-methyl)-1-piperidine propanol binding IC50. As to the method:
^a Inhibition of binding indicates affinity for NMDA NR2B subunit
3H [R-(R*,S*)]-α-(4-Hydroxy-phenyl)-β-methyl-4-(phenyl-methyl)-1-piperidine propanol) binding
(§3) Male Fullinsdorf albino rats weighing between 150-200 g were used. Membranes were prepared by homogenization of the whole brain minus cerebellum and medulla oblongata with a Polytron (10.000 rpm, 30 seconds), in 25 volumes of a cold Tris-HCl 50 mM, EDTA 10 mM, pH 7.1 buffer. The homogenate was centrifuged at 48.000 g for 10 minutes at 4° C. The pellet was resuspended using the Polytron in the same volume of buffer and the homogenate was incubated at 37° C. for 10 minutes. After centrifugation the pellet was homogenized in the same buffer and frozen at -100° C. for at least 16 hours but not more than 10 days. For the binding assay the homogenate was thawed at 37° C., centrifuged and the pellet was washed three times as above in a Tris-HCl 5 mM, pH 7.4 cold buffer. The final pellet was resuspended in the same buffer and used at a final concentration of 200 μg of protein/ml.
3H [R-(R*,S*)]-α-(4-Hydroxy-phenyl)-β-methyl-4-(phenyl-methyl)-1-piperidine propanol binding experiments were performed using a Tris-HCl 50 mM, pH 7.4 buffer. For displacement experiments 5 nM of 3H [R-(R*,S*)]-α-(4-Hydroxy-phenyl)-β-methyl-4-(phenyl-methyl)-1-piperidine propanol were used and non specific binding was measured using 10 μM of tetrahydroisoquinoline and usually it accounts for 10% of the total. The incubation time was 2 hours at 4° C. and the assay was stopped by filtration on Whatmann GF/B glass fiber filters (Unifilter-96, Packard, Zurich, Switzerland). The filters were washed 5 times with cold buffer. The radioactivity on the filter was counted on a Packard Top-count microplate scintillation counter after addition of […] of microscint 40 (Canberra Packard S. A., Zurich, Switzerland).
The effects of compounds were measured using a minimum of 8 concentrations and repeated at least once. The pooled normalized values were analyzed using a non-linear regression calculation program which provide IC50 with their relative upper and lower 95% confidence limits (RS1, BBN, USA).

Assay [3] concerns the target T3, recombinant human ERG potassium channels (Homo sapiens, UniProt Q12809).
T3 construct: expressed in transfected cells; host or cells: CHO cells, stably transfected with pcDNA3-HERG
The experiment in a line: Inhibition of the HERG K+ channel, whole-cell patch-clamp, transfected CHO cells. The assay is classed as cell-based. The settings on record: concentrations above 10 μM not tested. The source says:
Method 3 Methods for Studying the Inhibition of the HERG K^+ Channel CHO cells were stably transfected by a pcDNA3-HERG expression vector containing a SV40-neo cassette for selection. Cells were thinly plated into 35 mm dishes and used for the electrophysiological experiment 1/2-3 d later. […] A 10-mM stock solution of the test compound was made from pure DMSO. Test solution were made by at least 1000-fold dilution of the stock solution into the extracellular saline. […] The whole-cell configuration of the patch-clamp technique was used for the experiments. […] The membrane current was recorded for at least 3 min (18 stimuli) before compound application (control), and then for another two 3-min intervals in presence of two different concentrations of the compound. The current amplitudes (Itest) at the end of each compound application interval were divided by the mean current amplitude (Icontrol) during the initial control period to calculate the percentage effect of the compound: effect (%)=(1-Itest /Icontrol)·100. […] If after the first experiment the IC50 turned out to lie outside the range between the two chosen concentrations the concentrations were changed to bracket the IC50 in the following experiments. The compound was tested on at least three cells.
A general note: Patch clamp records ionic current or voltage across a cell membrane.

For assay [4], the target named is α1-adrenergic receptors. Description: 3H-Prazosin binding. The settings on record: rat brain membranes, 0.2 nM 3H-Prazosine, 30 minutes at room temperature, pH 7.4; read-out: Inhibition of [3H]-Prazosin binding IC50. Also on record: species or system rat (Male Fullinsdorf albino rats). As to the method: ^b Inhibition of binding indicates affinity for α1
as §3, with “a Plytron” for “a Polytron”, “at -80°” for “at -100°”, “Tris-HCl 15mM,” for “Tris-HCl 5 mM,”, “[…]” for “200 μg”
3H-Prazosin binding experiments were performed using a Tris-HCl 50 mM, pH 7.4 buffer. For displacement experiments 0.2 nM of 3H-Prazosine were used and non specific binding was measured using […] of Chlorpromazine. The incubation time was 30 minutes at room temperature and the assay was stopped by filtration on Whatman GF/B glass fiber filters (Ubrifilter-96, Canberra Packard S. A., Zurich, Switzerland). The filters were washed 5 times with cold buffer. The radioactivity on the filter was counted on a Packard Top-count microplate scintillation counter after addition of […] of microscint 40 (Canberra Packard S. A., Zurich, Switzerland). The effects of compounds were measured using a minimum of 8 concentrations and repeated at least once. The pooled normalized values were analyzed using a non-linear regression calculation program which provide IC50 with their relative upper and lower 95% confidence limits (RS1, BBN, USA).

The test system of assay [5] is i.c.v. NMDA-induced convulsions in mice. Description: Block of i.c.v. NMDA-induced convulsions in mice. The format is in vivo. The settings on record: Mus musculus, iv. From the text: |^d Indicates potency in mg/kg i.v. to block i.c.v. NMDA-induced | convulsions in mice.
The target in assay [6] is T4, NMDA NR1 + NR2A (Homo sapiens, UniProt Q05586+Q12879).
T4 construct: expressed in transfected cells; host or cells: Xenopus oocytes
T4 sequence (Q12879 23-1464, other chains not shown): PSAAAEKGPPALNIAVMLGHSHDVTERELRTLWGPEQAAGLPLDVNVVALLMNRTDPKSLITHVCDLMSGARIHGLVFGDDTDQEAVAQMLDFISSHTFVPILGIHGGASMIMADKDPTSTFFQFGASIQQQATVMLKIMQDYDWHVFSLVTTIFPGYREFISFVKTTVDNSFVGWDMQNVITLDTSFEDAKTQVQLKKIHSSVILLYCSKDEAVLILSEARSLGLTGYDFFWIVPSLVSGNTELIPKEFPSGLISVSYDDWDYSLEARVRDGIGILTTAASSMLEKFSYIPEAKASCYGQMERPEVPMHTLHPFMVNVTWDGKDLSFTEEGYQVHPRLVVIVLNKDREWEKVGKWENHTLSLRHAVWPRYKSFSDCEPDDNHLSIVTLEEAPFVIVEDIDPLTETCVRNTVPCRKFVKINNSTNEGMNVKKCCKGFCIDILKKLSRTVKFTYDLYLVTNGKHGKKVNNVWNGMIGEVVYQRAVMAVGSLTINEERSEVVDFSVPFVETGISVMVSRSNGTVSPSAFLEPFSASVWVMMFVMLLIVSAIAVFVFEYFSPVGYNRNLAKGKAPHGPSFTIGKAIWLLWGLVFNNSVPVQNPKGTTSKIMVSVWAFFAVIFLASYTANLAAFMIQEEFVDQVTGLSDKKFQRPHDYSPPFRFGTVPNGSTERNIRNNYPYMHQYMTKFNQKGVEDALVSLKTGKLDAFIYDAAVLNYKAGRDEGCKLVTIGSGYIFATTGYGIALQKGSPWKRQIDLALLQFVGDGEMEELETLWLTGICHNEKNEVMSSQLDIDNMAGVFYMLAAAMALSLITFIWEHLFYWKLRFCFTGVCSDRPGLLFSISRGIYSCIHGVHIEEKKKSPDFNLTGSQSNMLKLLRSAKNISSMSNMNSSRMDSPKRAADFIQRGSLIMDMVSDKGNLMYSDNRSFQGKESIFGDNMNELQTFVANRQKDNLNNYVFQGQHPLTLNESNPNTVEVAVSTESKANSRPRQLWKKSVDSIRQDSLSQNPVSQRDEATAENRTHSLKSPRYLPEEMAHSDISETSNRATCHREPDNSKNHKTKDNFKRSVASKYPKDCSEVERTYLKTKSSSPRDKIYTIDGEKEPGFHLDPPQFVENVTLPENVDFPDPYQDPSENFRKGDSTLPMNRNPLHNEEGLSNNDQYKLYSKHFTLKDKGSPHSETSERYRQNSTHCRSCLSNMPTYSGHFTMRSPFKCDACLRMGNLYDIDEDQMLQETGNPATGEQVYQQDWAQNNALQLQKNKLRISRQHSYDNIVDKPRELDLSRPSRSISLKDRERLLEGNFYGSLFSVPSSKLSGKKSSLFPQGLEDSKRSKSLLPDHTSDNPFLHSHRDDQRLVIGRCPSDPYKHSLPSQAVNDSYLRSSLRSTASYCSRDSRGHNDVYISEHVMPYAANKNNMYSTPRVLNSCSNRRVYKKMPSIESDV
The experiment in a line: Block of recombinant NMDA receptor subtype NR1 + NR2A expressed in Xenopus oocytes. The format is cell-based.
Excerpt: as §1, §2

pIC50: −log10 of the molar value. Where “and” joins values, the source holds several entries; their conditions need not be identical. Equal entries are not always repeated. Where only a bound is given, the exact number is not on record here.

T1 sequence (Q13224 27-1484, other chains not shown): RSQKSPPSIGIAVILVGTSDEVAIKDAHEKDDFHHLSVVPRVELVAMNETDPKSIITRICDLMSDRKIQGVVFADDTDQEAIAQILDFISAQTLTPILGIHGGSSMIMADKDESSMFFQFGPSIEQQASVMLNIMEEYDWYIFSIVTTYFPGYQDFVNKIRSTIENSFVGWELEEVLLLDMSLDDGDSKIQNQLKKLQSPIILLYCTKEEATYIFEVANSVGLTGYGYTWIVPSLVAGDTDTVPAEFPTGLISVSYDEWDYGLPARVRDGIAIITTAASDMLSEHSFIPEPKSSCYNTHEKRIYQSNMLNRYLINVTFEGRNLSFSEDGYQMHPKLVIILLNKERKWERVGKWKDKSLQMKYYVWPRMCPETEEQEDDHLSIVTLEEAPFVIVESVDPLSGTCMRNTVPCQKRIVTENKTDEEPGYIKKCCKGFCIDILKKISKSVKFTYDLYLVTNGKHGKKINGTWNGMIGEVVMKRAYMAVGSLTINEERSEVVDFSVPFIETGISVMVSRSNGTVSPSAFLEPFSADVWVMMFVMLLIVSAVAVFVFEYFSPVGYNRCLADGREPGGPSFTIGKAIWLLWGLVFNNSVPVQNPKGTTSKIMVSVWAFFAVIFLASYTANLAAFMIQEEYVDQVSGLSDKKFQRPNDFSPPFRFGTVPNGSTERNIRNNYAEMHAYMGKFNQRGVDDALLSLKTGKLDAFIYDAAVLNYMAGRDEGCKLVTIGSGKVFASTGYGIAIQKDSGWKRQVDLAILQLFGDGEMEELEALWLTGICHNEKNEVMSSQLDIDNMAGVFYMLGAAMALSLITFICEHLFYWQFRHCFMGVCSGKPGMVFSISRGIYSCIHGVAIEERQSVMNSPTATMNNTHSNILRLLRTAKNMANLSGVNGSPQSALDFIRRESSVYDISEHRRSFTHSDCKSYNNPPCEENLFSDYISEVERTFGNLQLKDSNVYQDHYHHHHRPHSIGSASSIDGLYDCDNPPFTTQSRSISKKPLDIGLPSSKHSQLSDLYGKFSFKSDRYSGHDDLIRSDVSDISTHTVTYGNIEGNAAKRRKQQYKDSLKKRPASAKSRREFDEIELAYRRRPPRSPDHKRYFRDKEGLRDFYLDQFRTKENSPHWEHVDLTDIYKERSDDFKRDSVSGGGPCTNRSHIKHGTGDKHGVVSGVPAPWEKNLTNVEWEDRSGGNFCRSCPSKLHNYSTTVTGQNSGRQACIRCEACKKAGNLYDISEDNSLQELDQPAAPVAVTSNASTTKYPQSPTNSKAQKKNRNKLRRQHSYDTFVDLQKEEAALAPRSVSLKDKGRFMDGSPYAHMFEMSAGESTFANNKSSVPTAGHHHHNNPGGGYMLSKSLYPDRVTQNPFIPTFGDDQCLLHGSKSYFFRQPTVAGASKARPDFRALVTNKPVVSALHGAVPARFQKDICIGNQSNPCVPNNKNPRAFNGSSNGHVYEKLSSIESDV

On to `Cc1ccc(C[C@H]2CCN(CCS(=O)(=O)c3ccc(O)cc3)C[C@H]2O)cc1` (single isomer, unassigned) [Compound 6, (-)(cis)-1-[2-(4-hydroxy-benzenesulfonyl)-ethyl]-4-(4-methyl-benzyl)-piperidin-3-ol], for which the pIC50 (as a rule, the negative decadic logarithm of the IC50, by convention in mol/L) in assay [1] is 8.10; in assay [2], 7.96 and 7.62 to 7.96; in assay [3], 5.43; in assay [4] it was 4.06; in assay [6], less than 5.00. Besides, in assay [5], the median effective dose (ED50) (in general, the dose that gives a 50% effect, or the effect in half of the subjects) worked out at 2.2 mg/kg.
With `O=S(=O)(CCN1CCC(Cc2ccccc2)CC1)c1ccc(O)cc1` [Compound 1, 4[-2-(4-benzyl-piperidine-1-yl)-ethanesulfonyl]-phenol], the negative logarithm of the IC50 (pIC50) in assay [1] is greater than 8.00; in assay [2] it was 7.74 and 7.62 to 7.96; in assay [3], 5.40; in assay [4], 4.38; in assay [6], less than 5.00. For the same compound, in assay [5], the ED50 amounted to 1.1 mg/kg.
For `Cc1ccc(OC2CCN(CCS(=O)(=O)c3ccc(O)cc3)CC2)cc1` [Compound 2, 4-[2-(4-p-tolyloxy-piperidin-1-yl)-ethanesulfonyl]-phenol], the pIC50 is greater than 8.00 in assay [1]; 7.62 and 7.62 to 7.96 in assay [2]; 5.33 in assay [3]; 4.80 in assay [4]; less than 5.00 in assay [6]. Besides, in assay [5], the 50% effect level (ED50) was put at a dose of 0.84 mg/kg.
As for `O=S(=O)(CCN1CC[C@H](Cc2ccccc2)[C@H](O)C1)c1ccc(O)cc1` [Compound 3, (-)(3S,4S)-4-benzyl-1-[2-(4-hydroxy-benzenesulfonyl)-ethyl]-piperidin-3-ol], the pIC50 in assay [1] is 7.42; in assay [2], 7.85 and 7.62 to 7.96; in assay [4], 4.26; in assay [6], less than 5.00. Besides, the ED50 in assay [5] is 3.8 mg/kg.
As to `Cc1ccc(CC2(O)CCN(CCOc3ccc(O)cc3)CC2)cc1` [Compound 9, 1-[2-(4-hydroxy-phenoxy)-ethyl]-4-(4-methyl-benzyl)-piperidin-4-ol, reference compound], the negative-log IC50 (pIC50) was 8.52 in assay [1], 6.16 in assay [3], 5.46 in assay [4] and less than 4.00 in assay [6]. In addition, the ED50 in assay [5] amounted to 2.3 mg/kg.
